Data: patent US20040171045A1, “Assay for predicting cell activity” (IsoTis N.V., priority 2001, published 2004)

Test system: human bone marrow stromal cells (HBMSC)
Assay: Temporal expression of ALP in HBMSC cultures by flow cytometry, (+) dex versus control medium
Format: cell-based
Settings: 10^−8 M dex, average of day 3 to day 9
Procedure: The expression of ALP was evaluated by flow cytometry at several culture periods (from day 1 to day 9, three to four measurements were performed for each culture). Briefly, after trypsinisation, cells were washed twice in wash buffer and blocked against non-specific binding (see above). Cells (approx. 0.1-0.3E6/staining) were then resuspended in blocking buffer containing: (a) control mouse anti-human IgG2a (1:5 dilution) and (b) ALP monoclonal antibody (1:10 dilution). After incubation on ice for 45 minutes and washing, antibody reactivity was detected by suspending the cells with blocking buffer containing goat anti-mouse IgGγ-chain-specific-FITC (1:5 dilution). Cells were incubated on ice and in the dark for 30 minutes. After washing, the cells were resuspended in 200 μl of FACS-flow/staining and analyzed using a FACS Calibur apparatus (Becton Dickinson Immunocytometry systems). For each measurement 10,000 events were collected.

## C[C@@H]1C[C@H]2[C@@H]3CCC4=CC(=O)C=C[C@]4(C)[C@@]3(F)[C@@H](O)C[C@]2(C)[C@@]1(O)C(=O)CO [dex, dexamethasone]
Donor 1 (U00079)
  Ratio between the fraction of ALP+ cells in the (+) dex and control conditions: 1.53
Donor 2 (U00084)
  Ratio between the fraction of ALP+ cells in the (+) dex and control conditions: 1.53
Donor 3 (U00169)
  Ratio between the fraction of ALP+ cells in the (+) dex and control conditions: 1.40
Donor 4 (U00182-2)
  Ratio between the fraction of ALP+ cells in the (+) dex and control conditions: 2.71
Donor 5 (U00212)
  Ratio between the fraction of ALP+ cells in the (+) dex and control conditions: 2.53
Donor 6 (U00230)
  Ratio between the fraction of ALP+ cells in the (+) dex and control conditions: 1.52
Donor 7 (U00106)
  Ratio between the fraction of ALP+ cells in the (+) dex and control conditions: 1.25
Donor 8 (U00173)
  Ratio between the fraction of ALP+ cells in the (+) dex and control conditions: 3.72
Donor 9 (U00174)
  Ratio between the fraction of ALP+ cells in the (+) dex and control conditions: 1.56
Donor 11 (U00179)
  Ratio between the fraction of ALP+ cells in the (+) dex and control conditions: 2.40
Donor 12 (U00090)
  Ratio between the fraction of ALP+ cells in the (+) dex and control conditions: 2.56
Donor 13 (U00180)
  Ratio between the fraction of ALP+ cells in the (+) dex and control conditions: 1.55
Donor 14 (U00091)
  Ratio between the fraction of ALP+ cells in the (+) dex and control conditions: 1.80
